EP4752152A1, “STEROID COMPOUND, AND PREPARATION METHOD THEREFOR AND USE THEREOF” (Cholesgen (Shanghai) Co.Ltd., priority 2023, dated 2025)
pIC50: −log10 of the molar value. Values after ≈ are worked out from the molar mass of the structure shown. Read-outs that look alike come from different tables or passages of the source.

What was measured:
[1] = tested on: Fatty Acid Synthase (FASN) gene; assay: Inhibition of FASN gene expression (qPCR) in Huh-7 cells; type: cell-based, human; conditions: Huh-7 cells, starvation medium, 16 hours, qPCR, class symbols, read-out: FASN IC50
Method in brief: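 Huh-7 cells switched to starvation DMEM (5% LPDS, 2 µM lovastatin, 10 µM mevalonate) and treated 16 h with compound, top 3000 nM, 3-fold dilutions, 5 concentrations. FASN mRNA by RT-qPCR; inhibition relative to DMSO, IC50 from four-parameter fit.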

SREBP pathway = assay: SREBP luciferase reporter gene system (SRE-luciferase assay); type: cell-based, human; conditions: Huh-7/SRE-luc cells, sterol-deficient medium, 0.01-10 µM
Method in brief: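 Huh-7 cells stably carrying LDLR promoter-luciferase plus GFP were treated 16 h in sterol-deficient medium (5% lipoprotein-deficient serum, 2 µM lovastatin, 10 µM mevalonic acid) at 0.01–10 µM. Luciferase/GFP ratio measured as pathway activity; inhibition versus DMSO fitted to a four-parameter model for IC50.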

[2] = Solubility in fasted-state simulated intestinal fluid (FaSSIF); type: physicochemical; conditions: FaSSIF pH 6.5, 300 µM sample solution, room temperature
Procedure: Compound powder was dissolved in DMSO to prepare a 10.0 mM stock solution for later use. 0.021 g NaOH, 0.198 g NaH2PO4, and 0.309 g NaCl were weighed and added to 50.0 mL of ultrapure water. After thorough mixing, the pH was adjusted to 6.5 using HCl or NaOH. Then, 0.112 g of FaSSIF powder was added. After complete dissolution, the solution was allowed to stand at room temperature for 2 hours for later use. A certain volume of the compound stock solution was added to a certain volume of FaSSIF to prepare a 300 µM sample solution, which was mixed at room temperature under 1000 rpm for 1 hour. After 1 hour, the sample was centrifuged, and a certain volume of supernatant was taken. The termination solution was added to precipitate the sample, which was then thoroughly mixed and centrifuged for 20 minutes. The supernatant was then taken again, diluted with dilution solution, and then analyzed by liquid chromatography-tandem mass spectrometry (LC-MS/MS). The concentration of the test compound in the samples was quantitatively determined using LC-MS/MS. Table 3: FaSSIF solubility results of compounds from some examples

[3] = FaSSIF, pH 6.5, fassif, kinetic from dmso stock

| Compound | pIC50 ([1]; Homo sapiens, Huh-7, 16 h) | IC50 (SREBP pathway; 16 hours) [µM] | solubility at 1 h [2, 3] [µM] | pIC50 [1] | solubility at 1 h ([2]; 60 min) [µM] | IC50 (SREBP pathway; Homo sapiens, Huh-7, 16 h) [µM] |
| --- | --- | --- | --- | --- | --- | --- |
| COc1nc(F)ccc1C(O)CCC[C@@H](C)[C@H]1CC[C@H]2[C@H]3[C@H](CC[C@]12C)[C@@]1(C)CC[C@H](O)[C@H](O)[C@@H]1CC3(F)F (single isomer, unassigned) [Compound 188, (1R,3aS,3bS,5aR,6R,7S,9aR,9bS,11aR)-4,4-difluoro-1-[(2R,6S)-6-(6-fluoro-2-methoxypyridin-3-yl)-6-hydroxyhexan-2-yl]-9a,11a-dimethylhexadecahydro-1H-cyclopenta[1,2-a]phenanthrene-6,7-diol or (1R,3aS,3bS,5aR,6R,7S,9aR,9bS,11aR)-4,4-difluoro-1-[(2R,6R)-6-(6-fluoro-2-methoxypyridin-3-yl)-6-hydroxyhexan-2-yl]-9a,11a-dimethylhexadecahydro-1H-cyclopenta[1,2-a]phenanthrene-6,7-diol] | > 6.70 | 0.142 | 139 (≈ 76.9 µg/mL) | – | – | – |
| COc1nc(F)ccc1C(O)CCC[C@@H](C)[C@H]1CC[C@H]2[C@H]3[C@H](CC[C@]12C)[C@@]1(C)CC[C@H](O)[C@H](O)[C@@H]1CC3(F)F (single isomer, unassigned) [Compound 189, (1R,3aS,3bS,5aR,6R,7S,9aR,9bS,11aR)-4,4-difluoro-1-[(2R,6R)-6-(6-fluoro-2-methoxypyridin-3-yl)-6-hydroxyhexan-2-yl]-9a,11a-dimethylhexadecahydro-1H-cyclopenta[1,2-a]phenanthrene-6,7-diol or (1R,3aS,3bS,5aR,6R,7S,9aR,9bS,11aR)-4,4-difluoro-1-[(2R,6S)-6-(6-fluoro-2-methoxypyridin-3-yl)-6-hydroxyhexan-2-yl]-9a,11a-dimethylhexadecahydro-1H-cyclopenta[1,2-a]phenanthrene-6,7-diol] | – | 0.0231 | – | > 6.70 | 157.08 (≈ 87 µg/mL) | – |
| C[C@H](CCCC(O)c1cccc2c1OC(F)(F)O2)[C@H]1CC[C@H]2[C@H]3[C@H](CC[C@]12C)[C@@]1(C)CC[C@H](O)[C@H](O)[C@@H]1CC3(F)F (single isomer, unassigned) [Compound 195, (1R,3aS,3bS,5aR,6R,7S,9aR,9bS,11aR)-1-[(2R,6R)-6-(2,2-difluorobenzo[d][1,3]dioxol-4-yl)-6-hydroxyhexan-2-yl]-4,4-difluoro-9a,11a-dimethylhexadecahydro-1H-cyclopenta[1,2-a]phenanthrene-6,7-diol or (1R,3aS,3bS,5aR,6R,7S,9aR,9bS,11aR)-1-[(2R,6S)-6-(2,2-difluorobenzo[d][1,3]dioxol-4-yl)-6-hydroxyhexan-2-yl]-4,4-difluoro-9a,11a-dimethylhexadecahydro-1H-cyclopenta[1,2-a]phenanthrene-6,7-diol] | – | 0.067 | 244 (≈ 143 µg/mL) | > 6.70 | – | – |
| COc1cc(F)nc(F)c1[C@@H](O)CCC[C@@H](C)[C@H]1CC[C@H]2[C@H]3[C@H](CC[C@]12C)[C@@]1(C)CC[C@H](O)[C@H](O)[C@@H]1CC3(F)F (single isomer, unassigned) [Compound 234] | > 6.70 | – | 49.3 (≈ 28.2 µg/mL) | – | – | 0.029 |
| COc1cc(F)nc(OC)c1[C@@H](O)CCC[C@@H](C)[C@H]1CC[C@H]2[C@H]3[C@H](CC[C@]12C)[C@@]1(C)CC[C@H](O)[C@H](O)[C@@H]1CC3(F)F (single isomer, unassigned) [Compound 263] | > 6.70 | – | 63 (≈ 36.8 µg/mL) | – | – | 0.032 |
| C[C@H](CCCC(O)c1cccc2ncn(C)c12)[C@H]1CC[C@H]2[C@H]3[C@H](CC[C@]12C)[C@@]1(C)CC[C@H](O)[C@H](O)[C@@H]1CC3(F)F (single isomer, unassigned) [Compound 298, (1R,3aS,3bS,5aR,6R,7S,9aR,9bS,11aR)-4,4-difluoro-1-[(2R,6S)-6-hydroxy-6-(3-methylbenzo[d]imidazol-4-yl)hexan-2-yl]-9a,11a-dimethylhexadecahydro-1H-cyclopenta[1,2-a]phenanthrene-6,7-diol or (1R,3aS,3bS,5aR,6R,7S,9aR,9bS,11aR)-4,4-difluoro-1-[(2R,6R)-6-hydroxy-6-(3-methylbenzo[d]imidazol-4-yl)hexan-2-yl]-9a,11a-dimethylhexadecahydro-1H-cyclopenta[1,2-a]phenanthrene-6,7-diol] | – | 0.093 | 18.2 (≈ 10.2 µg/mL) | – | – | – |
| C[C@H](CCCC(O)c1ccccc1F)[C@H]1CC[C@H]2[C@H]3[C@H](CC[C@]12C)[C@@]1(C)CC[C@H](O)[C@H](O)[C@@H]1CC3(F)F (stereo partly drawn) [Compound 3, (1R,3aS,3bS,5aR,6R,7S,9aR,9bS,11aR)-4,4-difluoro-1-[(2R)-6-(2-fluorophenyl)-6-hydroxyhexan-2-yl]-9a,11a-dimethylhexadecahydro-1H-cyclopenta[1,2-a]phenanthrene-6,7-diol] | – | – | 247 (≈ 129 µg/mL) | – | – | 0.03 |
| C[C@H](CCCC(O)c1c(F)cc(F)nc1F)[C@H]1CC[C@H]2[C@H]3[C@H](CC[C@]12C)[C@@]1(C)CC[C@H](O)[C@H](O)[C@@H]1CC3(F)F (stereo partly drawn) [Compound 165, (1R,3aS,3bS,5aR,6R,7S,9aR,9bS,11aR)-4,4-difluoro-1-[(2R)-6-hydroxy-6-(2,4,6-trifluoropyridin-3-yl)hexan-2-yl]-9a,11a-dimethylhexadecahydro-1H-cyclopenta[1,2-a]phenanthrene-6,7-diol] | – | – | 87.4 (≈ 48.9 µg/mL) | – | – | 0.099 |
| COc1nc(F)cnc1C(O)CCC[C@@H](C)[C@H]1CC[C@H]2[C@H]3[C@H](CC[C@]12C)[C@@]1(C)CC[C@H](O)[C@H](O)[C@@H]1CC3(F)F (stereo partly drawn) [Compound 175, (1R,3aS,3bS,5aR,6R,7S,9aR,9bS,11aR)-4,4-difluoro-1-[(2R)-6-(5-fluoro-3-methoxypyrazin-2-yl)-6-hydroxyhexan-2-yl]-9a,11a-dimethylhexadecahydro-1H-cyclopenta[1,2-a]phenanthrene-6,7-diol] | – | – | 280 (≈ 155 µg/mL) | – | – | 0.285 |
| COc1cc(F)c(C(O)CCC[C@@H](C)[C@H]2CC[C@H]3[C@H]4[C@H](CC[C@]23C)[C@@]2(C)CC[C@H](O)[C@H](O)[C@@H]2CC4(F)F)c(F)c1 (some centres unmarked) [Compound 197] | – | – | 328 (≈ 187 µg/mL) | – | – | 0.073 |
| C[C@H](CCCC(O)c1nccn1C)[C@H]1CC[C@H]2[C@H]3[C@H](CC[C@]12C)[C@@]1(C)CC[C@H](O)[C@H](O)[C@@H]1CC3(F)F (stereo partly drawn) [Compound 223, (1R,3aS,3bS,5aR,6R,7 S,9aR,9bS,11aR)-4,4-Difluoro-1-[(2R)-6-hydroxy-6-(3-methylimidazol-2-yl)hexan-2-yl]-9a,11a-dimethylhexadecahydro-1H-cyclopenta[1,2-a]phenanthrene-6,7-diol] | – | – | 305 (≈ 155 µg/mL) | – | – | 0.093 |
| C[C@H](CCCC(O)c1cccc2cn[nH]c12)[C@H]1CC[C@H]2[C@H]3[C@H](CC[C@]12C)[C@@]1(C)CC[C@H](O)[C@H](O)[C@@H]1CC3(F)F (stereo partly drawn) [Compound 224, (1R,3aS,3bS,5aR,6R,7 S,9aR,9bS,11aR)-4,4-Difluoro-1-[(2R)-6-hydroxy-6-(1H-indazol-7-yl)hexan-2-yl]-9a,11a-dimethylhexadecahydro-1H-cyclopenta[1,2-a]phenanthrene-6,7-diol] | – | – | 48 (≈ 26.1 µg/mL) | – | – | 0.055 |
| C[C@H](CCCC(O)c1nccc2c1OC(F)(F)O2)[C@H]1CC[C@H]2[C@H]3[C@H](CC[C@]12C)[C@@]1(C)CC[C@H](O)[C@H](O)[C@@H]1CC3(F)F (stereo partly drawn) [Compound 296, (1R,3aS,3bS,5aR,6R,7 S,9aR,9bS,11aR)-1-[(2R)-6-(2,2-Difluoro[1,3]dioxolo[4,5-c]pyridin-4-yl)-6-hydroxyhexan-2-yl]-4,4-difluoro-9a,11a-dimethylhexadecahydro-1H-cyclopenta[1,2-a]phenanthrene-6,7-diol] | – | – | 69.3 (≈ 40.6 µg/mL) | – | – | 0.226 |
| C[C@H](CCCC(O)c1cncc2c1OC(F)(F)O2)[C@H]1CC[C@H]2[C@H]3[C@H](CC[C@]12C)[C@@]1(C)CC[C@H](O)[C@H](O)[C@@H]1CC3(F)F (stereo partly drawn) [Compound 297, (1R,3aS,3bS,5aR,6R,7 S,9aR,9bS,11aR)-1-[(2R)-6-(2,2-Difluoro[1,3]dioxolo[4,5-c]pyridin-7-yl)-6-hydroxyhexan-2-yl]-4,4-difluoro-9a,11a-dimethylhexadecahydro-1H-cyclopenta[1,2-a]phenanthrene-6,7-diol] | – | – | 19.5 (≈ 11.4 µg/mL) | – | – | 0.197 |
| C[C@H](CCCC(O)c1ccc(F)nc1OC1CC1)[C@H]1CC[C@H]2[C@H]3[C@H](CC[C@]12C)[C@@]1(C)CC[C@H](O)[C@H](O)[C@@H]1CC3(F)F (stereo partly drawn) [Compound 328, (1R,3aS,3bS,5aR,6R,7S,9aR,9bS,11aR)-1-[(2R)-6-[2-(cyclopropyloxy)-6-fluoropyridin-3-yl]-6-hydroxyhexan-2-yl]-4,4-difluoro-9a,11a-dimethylhexadecahydro-1H-cyclopenta[1,2-a]phenanthrene-6,7-diol] | – | – | 263 (≈ 152 µg/mL) | – | – | 0.043 |
